In ChEMBL document CHEMBL4431383, “Structure-activity relationship of novel series of 1,5-disubstituted tetrazoles as cyclooxygenase-2 inhibitors: Design, synthesis, bioassay screening and molecular docking studies” (Bioorg Med Chem Lett, 2016):
pIC50: −log10 of the molar value.

Tests used:
[1] = Selectivity ratio of IC50 for ovine COX-1 to IC50 for recombinant human COX-2
[2] = Selectivity ratio of IC50 for recombinant human COX-2 to IC50 for ovine COX-1
[3] = molecular target: T1, Prostaglandin G/H synthase 1 (Ovis aries, UniProt P05979); experiment: Inhibition of ovine COX1 assessed as PGH2 formation preincubated for 10 mins followed by addition of arachidonic acid as substrate measured after 2 mins by ELISA
T1 sequence (P05979 whole entry): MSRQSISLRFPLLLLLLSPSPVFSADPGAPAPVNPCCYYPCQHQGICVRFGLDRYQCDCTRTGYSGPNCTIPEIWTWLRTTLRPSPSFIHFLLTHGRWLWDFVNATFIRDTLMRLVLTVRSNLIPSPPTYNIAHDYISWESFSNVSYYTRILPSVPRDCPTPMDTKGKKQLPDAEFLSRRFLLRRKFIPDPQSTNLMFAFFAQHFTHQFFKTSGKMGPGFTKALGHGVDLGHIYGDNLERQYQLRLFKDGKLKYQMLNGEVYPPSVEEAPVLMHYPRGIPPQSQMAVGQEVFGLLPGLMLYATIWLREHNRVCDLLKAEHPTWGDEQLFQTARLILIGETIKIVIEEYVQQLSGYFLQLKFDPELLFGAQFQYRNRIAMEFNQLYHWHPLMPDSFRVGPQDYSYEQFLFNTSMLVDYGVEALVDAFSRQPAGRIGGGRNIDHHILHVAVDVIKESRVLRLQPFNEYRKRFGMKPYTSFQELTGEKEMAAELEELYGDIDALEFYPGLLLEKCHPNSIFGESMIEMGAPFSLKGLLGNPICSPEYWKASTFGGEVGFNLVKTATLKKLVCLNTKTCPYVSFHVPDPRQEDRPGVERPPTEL

[4] = molecular target: T2, Prostaglandin G/H synthase 2 (Homo sapiens, UniProt P35354); experiment: Inhibition of recombinant human COX2 assessed as PGH2 formation preincubated for 10 mins followed by addition of arachidonic acid as substrate measured after 2 mins by ELISA
T2 sequence (P35354 whole entry): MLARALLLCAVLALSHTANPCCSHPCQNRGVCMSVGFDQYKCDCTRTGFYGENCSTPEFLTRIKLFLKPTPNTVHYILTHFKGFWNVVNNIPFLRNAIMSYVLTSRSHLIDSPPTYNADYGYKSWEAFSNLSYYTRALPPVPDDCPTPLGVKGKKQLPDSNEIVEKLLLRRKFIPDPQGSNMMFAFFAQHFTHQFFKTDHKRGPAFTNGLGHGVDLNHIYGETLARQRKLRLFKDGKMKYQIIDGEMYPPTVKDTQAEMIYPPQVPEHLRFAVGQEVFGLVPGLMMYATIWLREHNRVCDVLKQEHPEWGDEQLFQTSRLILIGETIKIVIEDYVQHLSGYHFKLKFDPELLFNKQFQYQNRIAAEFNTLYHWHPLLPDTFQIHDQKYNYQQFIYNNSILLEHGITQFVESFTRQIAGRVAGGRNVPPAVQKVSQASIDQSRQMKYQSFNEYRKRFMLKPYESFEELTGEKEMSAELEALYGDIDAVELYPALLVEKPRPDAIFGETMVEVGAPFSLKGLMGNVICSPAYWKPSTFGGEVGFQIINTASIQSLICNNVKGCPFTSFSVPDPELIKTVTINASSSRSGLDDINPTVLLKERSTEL

Compound | Ratio IC50 [1] | Ratio IC50 [2] | pIC50 [3] | pIC50 [4]
CS(=O)(=O)c1ccc(-c2nnnn2-c2ccc(CO)cc2)cc1 | > 0.02 | 55 | 5.05 | < 3.30
CS(=O)(=O)c1ccc(-c2nnnn2-c2ccc(O)cc2)cc1 | > 1.7 |  | < 3.30 | < 3.52
CS(=O)(=O)c1ccc(Cc2nnnn2-c2ccc(O)cc2)cc1 | > 0.42 |  | 4.07 | < 3.70
CS(=O)(=O)c1ccc(Cc2nnnn2-c2ccc(CCO)cc2)cc1 | > 67 | > 0.015 | < 3.70 | 5.52
NS(=O)(=O)c1ccc(-c2nnnn2-c2ccc(CCO)cc2)cc1 | > 2 |  | < 3.70 | 4.00
NS(=O)(=O)c1ccc(-c2nnnn2-c2ccc(O)cc2)cc1 | > 0.2 |  | 4.00 | < 3.30
CS(=O)(=O)c1ccc(Cc2nnnn2-c2ccc(CO)cc2)cc1 | > 5.2 | > 0.19 | < 3.70 | 4.42
NS(=O)(=O)c1ccc(-c2nnnn2-c2ccc(CO)cc2)cc1 | 0.87 | 1.14 | 4.68 | 4.62
CS(=O)(=O)c1ccc(-c2nnnn2-c2ccc(CCO)cc2)cc1 | > 7.1 |  | < 3.30 | 4.15
